Patent publication US20240343733A1, “COMPOUNDS FOR TARGETING DEGRADATION OF IRAK4 PROTEINS” (BIOGEN MA INC., priority 2021, published 2024)

Target: T1, IRAK4 (Canis lupus familiaris, UniProt A0A8I3S726)
T1 sequence (A0A8I3S726 1-460): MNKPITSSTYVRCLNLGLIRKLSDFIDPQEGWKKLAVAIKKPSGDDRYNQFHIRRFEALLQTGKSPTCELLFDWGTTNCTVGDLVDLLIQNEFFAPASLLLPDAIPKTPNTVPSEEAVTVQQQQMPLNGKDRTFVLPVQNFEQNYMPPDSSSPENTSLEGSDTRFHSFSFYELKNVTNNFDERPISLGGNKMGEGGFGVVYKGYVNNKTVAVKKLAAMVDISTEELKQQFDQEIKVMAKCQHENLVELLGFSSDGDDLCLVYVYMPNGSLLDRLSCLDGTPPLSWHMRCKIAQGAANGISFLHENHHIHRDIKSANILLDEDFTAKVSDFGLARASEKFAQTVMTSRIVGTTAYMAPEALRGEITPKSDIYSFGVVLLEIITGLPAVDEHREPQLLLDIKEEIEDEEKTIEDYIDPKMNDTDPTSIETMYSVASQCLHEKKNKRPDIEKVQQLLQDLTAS
Test: Pharmacodynamics (PD) in Male Beagle Dogs, IRAK4 quantitation in PBMCs by nanoLC-MS/MS
Format: in vivo
Settings: male beagle dog PBMCs
Protocol: Assay 4. Pharmacodynamics (PD) in Male Beagle Dogs
Pharmacodynamics (PD) biomarker analyses of male beagle dog PMBCs from the whole blood timepoint samples collected in Assay 3 were performed.
For isolation of PBMCs, the whole blood timepoint samples described in Assay 3 above were processed immediately to ensure high viability of PBMCs. All the samples were processed at 18° C. to 20° C. The freshly collected whole blood (2 mL) was mixed with an equal volume of phosphate buffered saline. This mixture was inverted several times to ensure thorough mixing. The Histopaque® (Catalog no. 10771, Sigma-Aldrich, St. Louis, MO) bottle was inverted several times to ensure uniformity of the medium. A sterile syringe was used to draw 2 mL of Histopaque® medium and added to a sterile centrifuge tube. The whole blood-PBS sample (4 ml) was carefully layered on top of the Histopaque® medium, without mixing. The tube was centrifuge at 600 g for 30 to 40 min at 18° C. to 20° C. with the brakes turned off. The upper layer containing plasma and platelets was withdrawn slowly using a sterile pipette, leaving the PBMC cell layer undisturbed at the interface. The PBMC layer was transferred to a sterile centrifuge tube using a sterile pipette. The PBMCs were washed with 3 volumes (˜6 mL) of Hank's balanced salt solution (HBSS) (Gibco, Grand Island, NY) in the centrifuge tube. The cells were suspended by gently drawing them in and out of a pipette. The tubes were centrifuged at 250 g for 10 to 15 minutes at 18° C. to 20° C. and the supernatant discarded. The PBMCs were then resuspended in 6 to 8 ml of HBSS. For cell counting, the cell suspension was diluted 1:1 with Trypan Blue dye and mixed well. The cell numbers (live and dead) were counted, and cell viability calculated. The cell numbers and cell viability of each PBMC sample were recorded. The tube was centrifuged again at 500 g for 10 min at 18° C. to 20° C. The supernatant was removed, and the cell pellet was frozen at −80° C.
The frozen dog PBMC cell pellets were homogenized in two pellet volumes of lysis buffer (100 mM triethylammonium bicarbonate (TEAB), 4% SDS, 1× Roche protease inhibitor cocktail) by sonicating at 150 watt for 10 seconds in a 4° C. water bath using an E220 focused-ultrasonicator (Covaris, Woburn, MA, USA). Lysates were then clarified by centrifugation at 18,000 g for 20 minutes at 4° C. and protein concentrations were determined by bicinchoninic acid (BCA) assay (ThermoFisher Scientific, Waltham, MA, USA).
For protein digestion, an equal amount of protein was taken from each sample. Proteins were reduced with 10 mM DTT for 10 minutes at 70° C. and alkylated with 25 mM iodoacetamide for 30 minutes in the dark. Tryptic digestion was performed with S-Trap™ method (Protifi, Farmingdale, NY, USA) overnight at 37° C. In brief, samples were mixed with 90% MeOH in 100 mM TEAB containing 10% (w/w) trypsin and loaded onto an in-house packed S-Trap microcolumns. Samples were washed with 90% MeOH in 100 mM TEAB, and digested in 100 mM TEAB for 16 hours at 37° C. The resulting peptides were spiked with five heavy-labeled IRAK4 peptides (Vivitide, LLC, Gardner, MA, USA) at 2 fmol each (column loading), desalted using C18 StageTip, SpeedVac dried, and kept at −80 C until nanoLC-MS/MS analysis.
Peptide analysis was performed on a nanoLC-MS/MS platform composed of a Q Exactive HF mass spectrometer coupled to an EASY-nLC 1200 (ThermoFisher Scientific). Peptides were separated on an EASY-Spray™ C18 column (50 cm×75 am, 2 am) (ThermoFisher Scientific) at 50° C. Mobile phases were 0.1% formic acid in water (A) and 80% acetonitrile, 0.1% formic acid (B). Peptides were eluted with a 100-min method over an effective 80 min gradient from […] to 45% B at a flow rate of 275 nL/min. Peptides were ionized with a spray voltage of 1,800 V. Mass spectrometric data were acquired at parallel reaction monitoring (PRM) mode including five pairs of light and heavy IRAK4 peptides (Table 7 below). […]

IRAK4 change from vehicle (time 0 h) | IRAK4 change from vehicle (time 2 h) [%] | IRAK4 change from vehicle (time 24 h) [%] | IRAK4 change from vehicle (time 48 h) [%] | IRAK4 change from vehicle (time 96 h) [%] | SMILES
+12% | −51 | −97 | −95 | −95 | CC(C)Oc1cc2nc([C@H]3CC[C@H](CN4CCC(c5ccc6c(c5)n(C)c(=O)n6C5CCC(=O)NC5=O)CC4)CC3)cn2cc1C(=O)Nc1cnn2cccnc12 (stereo partly shown) [Compound 48, 2-[4-[[4-[1-(2,6-dioxo-3-piperidyl)-3-methyl-2-oxo-benzimidazol-5-yl]-1-piperidyl]methyl]cyclohexyl]-7-isopropoxy-N-pyrazolo[1,5-a]pyrimidin-3-yl-imidazo[1,2-a]pyridine-6-carboxamide]
−11% | −57 | −97 | −96 | −95 | CC(C)Oc1cc2nc([C@H]3CC[C@H](CN4CCC(c5ccc6c(c5)n(C)c(=O)n6C5CCC(=O)NC5=O)CC4)CC3)cn2cc1C(=O)Nc1cccn([C@H]2C[C@H]2F)c1=O (stereo partly drawn) [Compound 169, 2-((1R,4S)-4-((4-(1-(2,6-dioxopiperidin-3-yl)-3-methyl-2-oxo-2,3-dihydro-1H-benzo[d]imidazol-5-yl)piperidin-1-yl)methyl)cyclohexyl)-N-(1-((1S,2R)-2-fluorocyclopropyl)-2-oxo-1,2-dihydropyridin-3-yl)-7-isopropoxyimidazo[1,2-a]pyridine-6-carboxamide]
